Nine molecules from PubChem BioAssay (NCI) can be followed below.

Among the test systems are A498 renal; ACHN renal; HOP-62 NSCLC; HOP-92 NSCLC; IGROV1 ovarian; K-562 leukemia; KM12 colon; MCF7 breast; NCI-H23 lung; NCI/ADR-RES ovarian; OVCAR-5 ovarian; PC-3 prostate; RPMI-8226 leukemia; U251 CNS; M14 melanoma; SK-OV-3 ovarian.
Common to all, as to assay: inhibition of tumour cell growth, NCI panel, 48 h

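Cultured in 96-well plates, cells were exposed to test compound for 48 hours across five concentrations. TGI: concentration producing complete growth inhibition.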 Some results are limits rather than exact numbers.

With `CC(C)(CO)CNc1nc(N)nc(Cl)c1C=O`, the TGI with A498 renal was greater than 100 µM; with ACHN renal, greater than 100 µM; with HOP-62 NSCLC, 46.1 µM; with HOP-92 NSCLC it was 77.3 µM; in the test on IGROV1 ovarian, 46.4 µM; in the test on K-562 leukemia it was greater than 100 µM. Moreover, the TGI with KM12 colon was greater than 100 µM; with MCF7 breast, greater than 100 µM; in the test with NCI-H23 lung, greater than 100 µM; in the test with NCI/ADR-RES ovarian, greater than 100 µM; with OVCAR-5 ovarian it was greater than 100 µM; with PC-3 prostate it was 41.3 µM. In addition, the TGI in the test on RPMI-8226 leukemia and with U251 CNS was greater than 100 µM each time.
Take `CC(=O)/C=C1/C(=O)C(CC(C)C)=C1CC(C)C`: the TGI in the test on A498 renal, in the test with ACHN renal, with HOP-62 NSCLC, in the test with HOP-92 NSCLC, in the test on IGROV1 ovarian and in the test with KM12 colon was greater than 100 µM throughout. Besides, the TGI in the test on M14 melanoma, in the test with MCF7 breast, with NCI-H23 lung, in the test with NCI/ADR-RES ovarian, in the test on OVCAR-5 ovarian and in the test on PC-3 prostate was greater than 100 µM in each case. Also, the TGI in the test on SK-OV-3 ovarian and with U251 CNS was greater than 100 µM in each case.
In the case of `CCOP(=O)(OCC)/C(C#N)=C/c1cccn1C`, the TGI in the test with A498 renal, in the test with ACHN renal, with HOP-62 NSCLC, in the test with HOP-92 NSCLC, in the test with IGROV1 ovarian and in the test on KM12 colon was greater than 100 µM each time. The TGI in the test on M14 melanoma, with MCF7 breast, in the test on NCI-H23 lung, in the test with NCI/ADR-RES ovarian, with OVCAR-5 ovarian and in the test with PC-3 prostate was greater than 100 µM each time. Besides, the TGI in the test with RPMI-8226 leukemia, in the test on SK-OV-3 ovarian and with U251 CNS was greater than 100 µM in each case.
Turning to `c1ccc(CSCCC(SCc2ccccc2)SCc2ccccc2)cc1`, the TGI in the test with A498 renal, in the test with ACHN renal, in the test with HOP-62 NSCLC, with HOP-92 NSCLC, in the test with IGROV1 ovarian and in the test on K-562 leukemia was greater than 10 µM in each case. The TGI in the test with KM12 colon, with M14 melanoma, in the test with MCF7 breast, with NCI-H23 lung, with NCI/ADR-RES ovarian and in the test with PC-3 prostate was greater than 10 µM each time. The TGI in the test on RPMI-8226 leukemia, in the test with SK-OV-3 ovarian and in the test on U251 CNS was greater than 10 µM in each case.
Turning to `N#Cc1ccccc1NC(=O)C(O)C(O)C(O)C(O)C=O` (stereo unspecified), the TGI in the test with A498 renal, in the test on ACHN renal, in the test with HOP-92 NSCLC, with IGROV1 ovarian, with K-562 leukemia and in the test with KM12 colon was greater than 100 µM throughout. For the same molecule, the TGI with M14 melanoma, with MCF7 breast, with NCI-H23 lung, in the test on NCI/ADR-RES ovarian, with OVCAR-5 ovarian and with PC-3 prostate was greater than 100 µM each time. In addition, the TGI with SK-OV-3 ovarian and with U251 CNS was greater than 100 µM in each case.
`CSCCCNC(=O)c1csc(-c2csc(CCNC(=O)CNC(=O)OC(C)(C)C)n2)n1`: the TGI in the test with A498 renal, with ACHN renal, with HOP-62 NSCLC, in the test on HOP-92 NSCLC, with IGROV1 ovarian and with K-562 leukemia was greater than 100 µM in each case. The TGI with KM12 colon, in the test with M14 melanoma, in the test on MCF7 breast, in the test on NCI-H23 lung, with NCI/ADR-RES ovarian and with OVCAR-5 ovarian was greater than 100 µM each time. The TGI in the test with PC-3 prostate, with SK-OV-3 ovarian and with U251 CNS was greater than 100 µM throughout.
For `O=C(NC1C(=O)NC(CCc2ccccc2)NC1=O)OCc1ccccc1` (stereo unspecified), the TGI with A498 renal, in the test with ACHN renal, in the test with HOP-62 NSCLC, in the test on HOP-92 NSCLC, in the test on IGROV1 ovarian and in the test with K-562 leukemia was greater than 100 µM throughout. Moreover, the TGI in the test with KM12 colon, in the test on M14 melanoma, with MCF7 breast, in the test with NCI-H23 lung, in the test on NCI/ADR-RES ovarian and in the test on OVCAR-5 ovarian was greater than 100 µM throughout. Besides, the TGI in the test with PC-3 prostate, in the test with RPMI-8226 leukemia and in the test with U251 CNS was greater than 100 µM in each case.
In the case of `COc1cc2c(cc1OCCCN1CCOCC1)N=C[C@@H]1CCCN1C2=O`, the TGI in the test on A498 renal was 30.1 µM; with ACHN renal, 92 µM; in the test on HOP-62 NSCLC, 62.8 µM; with HOP-92 NSCLC, 7.4 µM; in the test on K-562 leukemia, greater than 100 µM; in the test with KM12 colon, 43.4 µM. Besides, the TGI was 29.1 µM in the test with M14 melanoma; greater than 100 µM with MCF7 breast; greater than 100 µM in the test on NCI/ADR-RES ovarian; 59.9 µM in the test on OVCAR-5 ovarian; 72.4 µM with PC-3 prostate; 5.83 µM in the test on RPMI-8226 leukemia. For the same molecule, the TGI in the test with SK-OV-3 ovarian was 87.5 µM; with U251 CNS, greater than 100 µM.
Turning to `CC(C)(C(=O)N(C(=O)N1CCN(c2ccccc2)CC1)S(=O)(=O)c1ccccc1)c1ccc(Cl)cc1`, the TGI with A498 renal is 80.8 µM; in the test with ACHN renal it was greater than 100 µM; in the test with HOP-62 NSCLC, greater than 100 µM; in the test with HOP-92 NSCLC, 53.6 µM; with K-562 leukemia it was greater than 100 µM; with KM12 colon, greater than 100 µM. For the same molecule, the TGI in the test with M14 melanoma is greater than 100 µM; in the test with MCF7 breast it was greater than 100 µM; in the test with NCI-H23 lung, greater than 100 µM; in the test with NCI/ADR-RES ovarian, greater than 100 µM; with OVCAR-5 ovarian, greater than 100 µM; in the test on PC-3 prostate, 70.3 µM. The TGI in the test on RPMI-8226 leukemia, in the test with SK-OV-3 ovarian and with U251 CNS was greater than 100 µM in each case.
